Structures can show the parent of a compound that is named as a salt.
What was measured:
serum cholesterol = assay: Serum cholesterol in male baboons; format: in vivo; conditions: 1.5 mg/kg for 12 days
Description: (§1) The samples analyzed were sera taken on the day of first treatment before being given test article (day 0), after 12 days of treatment (day 12) and 7 days after the last treatment (end or wash-out).

[1] = Clinical chemistry and hematology parameters in male baboons; format: in vivo; conditions: for serum glucose: change with treatment; for ALT/SGPT: changes over the treatment period / end of the study; for serum carbon dioxide: day 12; for serum anion gap: day 12 and washout; for BUN and BUN/creatinine: during the study
Description: as §1

[2] = following a single dose; cited from earlier work
serum LH and FSH = conditions: during treatment
Protocol: (§2) Half of the men in each of the Androxal™ and placebo arms were randomized into cohorts that underwent in-clinic sessions on days 1 and 14 to determine pharmacokinetic parameters for Androxal™ as well as cyclical changes in testosterone. The placebo and Androxal™ doses were administered in a double blind fashion. The Androgel® cream was administered in an open label fashion. Half of the Androgel® patients underwent in-clinic sessions similar to the other patients in the study. Following the two week drug exposure patients were followed for an additional seven to ten days to determine the status of their testosterone levels.

[3] = 50 mg dose; placebo group ratio 1.07
Protocol: as §2

serum testosterone = assay: Serum testosterone in male baboons given Clomid, Enclomid or Zuclomid; format: in vivo; conditions: between day 12 and day 18 (washout)
Description: as §1

Protocol for serum total testosterone: as §2

Row | SMILES | increase in serum cholesterol levels (serum cholesterol) | serum glucose [1] | ALT/SGPT [1] | serum carbon dioxide [1] | serum anion gap [1] | BUN and BUN/creatinine [1] | red blood cell population ([1]; 1.5 mg/kg for 12 days) | duration of residual blood levels [2] | eosinophil count ([1]; 1.5 mg/kg for 12 days) | lymphocyte count ([1]; 1.5 mg/kg for 12 days) | serum creatinine ([1]; between day 0 and Day 12) | percent of granulocytes in the blood ([1]; very strong after the 7-day washout period) | serum levels of FSH (serum LH and FSH) | serum levels of LH (serum LH and FSH) | DHT/TT ratio [3] | change in total serum testosterone after cessation of treatment (serum testosterone) | serum total testosterone in the follow-up period (serum total testosterone; 7-10 days after cessation of daily oral treatment) | changes in testosterone from baseline testosterone levels (serum total testosterone; all doses) | serum total testosterone in follow-up, highest dose compared to the high dose of AndroGel 1% (serum total testosterone; follow-up period, p=0.017, t-test)
1 | CCN(CC)CCOc1ccc(C(=C(Cl)c2ccccc2)c2ccccc2)cc1 [Clomid, clomiphene citrate] | slight increase | within the normal range | out of range low | higher than reference values | lower values than the Enclomid group | altered |  |  |  |  |  |  |  |  |  |  |  |  | 
2 | CCN(CC)CCOc1ccc(/C(=C(/Cl)c2ccccc2)c2ccccc2)cc1 [Zuclomid, cis-clomiphene] |  | within the normal range | within the normal range | higher than reference values | lower values than the Enclomid group |  | substantive effects on the red blood cell population | in excess of one month |  |  |  |  |  |  |  |  |  |  | 
3 | CCN(CC)CCOc1ccc(/C(=C(\Cl)c2ccccc2)c2ccccc2)cc1 [Enclomid, trans-clomiphene] |  |  | within the normal range |  | raised this parameter towards normal values | altered | substantive effects on the red blood cell population |  | raising the counts of lymphocytes and eosinophiles | increase in lymphocyte count | no differences between serum creatinine values | lowering the percent of granulocytes in the blood | statistically increase | statistically significant increase | 0.83 | significant drop in the level of total serum testosterone | remained high | statistically significant changes in testosterone | significantly higher
